From patent US20260271987A1, “AEROSOL PRECURSOR COMPOSITION COMPRISING MONOMENTHYL ESTER” (RAI STRATEGIC HOLDINGS, INC., priority 2023, published 2026)

Assay: Thermal analysis (flash pyrolysis and thermogravimetric analysis) of neat menthyl monosuccinate
Format: physicochemical
Details: for Compounds volatilized by FP and TGA, Area %: neat menthyl monosuccinate sample, FP in helium, Teq=340° C., 40 seconds, GC/MS, TGA 30 to 340° C. at 20 degrees per minute
Experimental: Flash pyrolysis (FP) and thermogravimetric analysis (TGA) were conducted on a sample of menthyl monosuccinate.
For the FP, a pyroprobe Model 5200 (CDS Analytical, CDS, Oxford, PA 19363, USA) pyrolyzer was used. Heating was performed in helium in flash mode with Teq=340° C. using approximately 0.5 mg of neat monomenthyl succinate. Heating was performed for 40 seconds. GC/MS analysis was performed with separation on a DB-1701 column. For the TG, a Discovery TA 5500 (TA Instruments, New Castle, DE, USA) was used. The temperature range was 30 to 340° C. at a ramp rate of 20 degrees per minute. Neat monomenthyl succinate (2-3 mg) and silica (about 1.5 mg, containing 5% naphthalene) was used as an internal standard.

Row | major decomposition product formed from menthyl monosuccinate (FP and TGA, up to 340° C.) [%] | SMILES | Compounds volatilized by FP and TGA, Area % [%] | portion of the menthyl monosuccinate volatilized without decomposition (FP and TGA, up to 340° C.) [%]
1 | 16.5 | CC(C)[C@@H]1CC[C@@H](C)C[C@H]1O [Menthol, (1R,2S,5R)-5-Methyl-2-(propan-2-yl)cyclohexan-1-ol] | 16.5 | 
2 |  | CC(C)[C@@H]1CC[C@@H](C)C[C@H]1OC(=O)CCC(=O)O [Menthyl monosuccinate] | 70 | 70
